How the values were obtained:
Salmonellae [1] = assay: Salmonellae log reduction in frozen pot pie filling containing 4-HBITC cooked in a microwave oven (plate count); assay type: cell-based; set-up: key to Synergistic effect Yes/No: Yes: reduction in microbial counts due to the simultaneous action of 4-HBITC and microwave heating is greater than the sum of the individual reductions in microbial counts due to 4-HBITC and microwave heating, a synergistic effect is considered to be present (YES); No: reduction in microbial counts due to the simultaneous action of 4-HBITC and microwave heating is equal to or less than the sum of the individual reductions in microbial counts due to 4-HBITC and due to microwave heating, a synergistic effect is considered to be absent (NO); conditions: for Synergistic effect Yes/No: 180 sec
Description: (§1) Pot pie fillings made up of both Salmonellae inoculated particulates and gravy carrying the 4-hydroxybenzyl isothiocyanate (4-HBITC) in white mustard essential oil (WMEO), is used to evaluate the effect of 4-HBITC in a heterogeneous food system. Standing overnight cultures of five strains of Salmonellae are used to inoculate, at two different levels, mixtures of frozen vegetable and chicken particulates containing about 62% chicken, 17% carrot, 15% potato and 2% peas, as described in Example 2, all by weight of the total particulate mixture. The high level contains about 6 log colony forming units (cfu)/gm while the medium level contains about 3 log cfu/gm of Salmonellae. Bags containing the inoculated cultures and the particulates are gently inverted and rolled to ensure uniform coating of the particulates and the inoculated particles are then stored at −28° C. for 24 hours before being mixed with sauce containing white mustard essential oil (WMEO).
(§2) Sauce as made in Example 2 is used as the vehicle for WMEO. From a 2.4% 4-HBITC in WMEO stock solution in peanut oil made as described in Example 1, accurate amounts are weighed out such that 400 g of the pie filling comprising 36% of the particulates and 64% of the gravy will have 750, 562.5 or 250 ppm, 4-HBITC when mixed together. The particulates and the sauce are first put together in a sterile bowl and the WMEO in peanut oil added to the mixture and mixed gently for about 1 minute. The control (0 ppm 4-HBITC samples have only the vegetable oil added to them before mixing. The completed pie fillings are then immediately frozen at −28° C. for 48 hours before the second stage of the experiment.
(§3) To enumerate the accurate Salmonellae count prior to freezing, a sample is removed from each of the mixed pie fillings, including the control, and diluted at a ratio of 1:10 with Butterfields buffer and homogenized using a stomacher. The homogenized and diluted sample is suitably diluted further to obtain the appropriate number of bacterial colonies per plate and plated in triplicate on trypticase soy agar with yeast extract and allowed to stabilize for 30-60 minutes. The plates are then over-laid with xyline-lysine-deoxycholate (XLD) agar to resuscitate and recover injured cells and incubated at 35° C. for 48 hours before counting the colonies.
(§4) In the second stage of the experiment, the frozen pie fillings are cooked in 700 W or 1100 W microwave ovens. During cooking, samples are removed from the pie fillings at 15, 45, 60, 90 120, 180 and 240 seconds. At each of these time points, the surviving microbial counts are enumerated by removing discrete 25 g samples and plating them in the manner described above. To determine the effect of 4-HBITC only, each of the treatments and the control is thawed to room temperature and triplicate samples are used to enumerate the surviving microorganisms as detailed above.
(§5) The microbial reductions resulting from the treatments is attributed to the simultaneous action of microwave heating and 4-HBITC while microbial reductions occurring in the 0 ppm 4-HBITC containing control sample is attributed to microwave heating only. If the reduction in microbial counts due to the simultaneous action of 4-HBITC and microwave heating is greater than the sum of the individual reductions in microbial counts due to 4-HBITC and microwave heating, a synergistic effect is considered to be present (YES). If the reduction in microbial counts due to the simultaneous action of 4-HBITC and microwave heating is equal to or less than the sum of the individual reductions in microbial counts due to 4-HBITC and due to microwave heating, a synergistic effect is considered to be absent (NO).

Salmonellae [2] = assay: Salmonellae log reduction in pot pie filling by 4-HBITC only (frozen filling thawed to room temperature, plate count); assay type: cell-based
Description: as §1, §2, §3, §4, §5

[3] = 250 ppm 4-HBITC, inoc. level H, MW power 700 Watts
[4] = 250 ppm 4-HBITC, inoc. level H, MW power 1100 Watts
[5] = 250 ppm 4-HBITC, inoc. level M, MW power 700 Watts
[6] = 250 ppm 4-HBITC, inoc. level M, MW power 1100 Watts
[7] = 562.5 ppm 4-HBITC, inoc. level H, MW power 700 Watts
[8] = 562.5 ppm 4-HBITC, inoc. level H, MW power 1100 Watts
[9] = 562.5 ppm 4-HBITC, inoc. level M, MW power 700 Watts
[10] = 562.5 ppm 4-HBITC, inoc. level M, MW power 1100 Watts
[11] = 750 ppm 4-HBITC, inoc. level H, MW power 700 Watts
[12] = 750 ppm 4-HBITC, inoc. level H, MW power 1100 Watts
[13] = 750 ppm 4-HBITC, inoc. level M, MW power 700 Watts
[14] = 750 ppm 4-HBITC, inoc. level M, MW power 1100 Watts

For Oc1ccc(CN=C=S)cc1 [4-HBITC, 4-hydroxybenzyl isothiocyanate], the “log reductions (180 sec) due to Simultaneous action of 4-HBITC & heat” value (shortened to “log reductions (180 sec) due … of 4-HBITC & heat”) (Salmonellae [1]; [3]) was 1.11 log, the “Synergistic effect Yes/No” value (Salmonellae [1]; [3]) was “No” and the “log reductions (180 sec) due … of 4-HBITC & heat” value (Salmonellae [1]; [4]) was 1.63 log. The “Synergistic effect Yes/No” value (Salmonellae [1]; [4]) was “Yes”, the “log reductions (180 sec) due … of 4-HBITC & heat” value (Salmonellae [1]; [5]) was 1.42 log and the “Synergistic effect Yes/No” value (Salmonellae [1]; [5]) was “No”. The “log reductions (180 sec) due … of 4-HBITC & heat” value (Salmonellae [1]; [6]) was 1.38 log, the “Synergistic effect Yes/No” value (Salmonellae [1]; [6]) was “No” and the “log reductions (180 sec) due … of 4-HBITC & heat” value (Salmonellae [1]; [7]) was 2.97 log. The “Synergistic effect Yes/No” value (Salmonellae [1]; [7]) was “Yes”, the “log reductions (180 sec) due … of 4-HBITC & heat” value (Salmonellae [1]; [8]) was 5.25 log and the “Synergistic effect Yes/No” value (Salmonellae [1]; [8]) was “Yes”. The “log reductions (180 sec) due … of 4-HBITC & heat” value (Salmonellae [1]; [9]) was 4.38 log, the “Synergistic effect Yes/No” value (Salmonellae [1]; [9]) was “Yes” and the “log reductions (180 sec) due … of 4-HBITC & heat” value (Salmonellae [1]; [10]) was 4.38 log. For the same compound, the “Synergistic effect Yes/No” value (Salmonellae [1]; [10]) was “Yes”, the “log reductions (180 sec) due … of 4-HBITC & heat” value (Salmonellae [1]; [11]) was 5.25 log and the “Synergistic effect Yes/No” value (Salmonellae [1]; [11]) was “Yes”. For the same compound, the “log reductions (180 sec) due … of 4-HBITC & heat” value (Salmonellae [1]; [12]) was 1.56 log, the “Synergistic effect Yes/No” value (Salmonellae [1]; [12]) was “No” and the “log reductions (180 sec) due … of 4-HBITC & heat” value (Salmonellae [1]; [13]) was 4.38 log. The “Synergistic effect Yes/No” value (Salmonellae [1]; [13]) was “Yes”, the “log reductions (180 sec) due … of 4-HBITC & heat” value (Salmonellae [1]; [14]) was 4.38 log and the “Synergistic effect Yes/No” value (Salmonellae [1]; [14]) was “Yes”. The “log reductions (180 sec) due to 4-HBITC only” value (Salmonellae [2]; [3]) was 0.74 log, the “log reductions (180 sec) due to 4-HBITC only” value (Salmonellae [2]; [4]) was 1.05 log and the “log reductions (180 sec) due to 4-HBITC only” value (Salmonellae [2]; [5]) was 1.15 log. The “log reductions (180 sec) due to 4-HBITC only” value (Salmonellae [2]; [6]) was 1.1 log, the “log reductions (180 sec) due to 4-HBITC only” value (Salmonellae [2]; [7]) was 1.59 log and the “log reductions (180 sec) due to 4-HBITC only” value (Salmonellae [2]; [8]) was 1.59 log. For the same compound, the “log reductions (180 sec) due to 4-HBITC only” value (Salmonellae [2]; [9]) was 2.4 log, the “log reductions (180 sec) due to 4-HBITC only” value (Salmonellae [2]; [10]) was 2.4 log and the “log reductions (180 sec) due to 4-HBITC only” value (Salmonellae [2]; [11]) was 2.03 log. For the same compound, the “log reductions (180 sec) due to 4-HBITC only” value (Salmonellae [2]; [12]) was 2.14 log, the “log reductions (180 sec) due to 4-HBITC only” value (Salmonellae [2]; [13]) was 2.4 log and the “log reductions (180 sec) due to 4-HBITC only” value (Salmonellae [2]; [14]) was 2.64 log.
